Results from patent US6472369B1, “Anticancer compounds and methods” (The Regents of the University of Michigan, priority 1996, dated 2002).

Tests used:
[1] = Clotting of peptide-treated blood in vivo; settings: in vivo observation
Description: In addition to using the PHSRN (SEQ ID NO:1) antagonists described above as anti-invasion chemotherapeutics, it is also contemplated that these antagonists be used as anti-thrombotics.

[2] = tested on: normal human prostate epithelial cells; assay: SU-ECM invasion assay, normal human prostate epithelial cells; type: cell-based; settings: 10% FCS, 100 ng per ml PHSRN, FIG. 6B
Method: (§1) Adult Strongylocentrotus purpuratus sea urchins were obtained from Pacific BioMarine, and their embryos were cultured to the early pluteus stage in artificial sea water at 15° C. SU-ECM were prepared from them by treatment with nonionic detergent and strerilized by dilution in the appropriate media. […]
(§2) Invasion assays were coded and scored blindly by microscopic examination under phase contrast at 200- and 400-fold magnification. Each cell contacting an SU-ECM was scored for its position relative to the exterior or interior surfaces. […] The minimum viability of the cells in each assay was always ascertained at the time of assay by determining the fraction of spread, adherent cells on the bottom of each well scored.
(§3) An invasion frequency is defined as the fraction of cells in contact with basement membranes which were located in their interiors at the time of assay. […] Invasion frequencies were determined multiple times for each cell type assayed. For each type of cell assayed the mean and standard deviation of the invasion frequencies were calculated. […]

[3] = tested on: metastatic DU-145 prostate cancer cells; assay: SU-ECM invasion assay, DU-145 prostate cancer cells; type: cell-based, human; settings: for inhibition of serum-induced invasion of SU-ECM: DU-145, 10% serum, FIG. 6A; for inhibition of PHSRN-induced invasion of SU-ECM: DU-145, serum-free medium, 100 ng per ml PHSRN, FIG. 6B
[4] = tested on: normal human mammary epithelial cells; assay: SU-ECM invasion assay, normal human mammary epithelial cells; type: cell-based; settings: 10% FCS, 100 ng per ml PHSRN, FIG. 5B
Method: as §1, §2, §3

[5] = tested on: metastatic SUM-52 PE breast cancer cells; assay: SU-ECM invasion assay, SUM-52 PE breast cancer cells; type: cell-based, human; settings: SUM-52 PE; for inhibition of PHSRN-induced invasion of SU-ECM: serum free medium, 100 ng per ml PHSRN, FIG. 5B; for inhibition of serum-induced invasion of SU-ECM: FIG. 5A
Method: Human breast carcinoma cell lines SUM 52 PE and SUM 44 PE were originally cultured from the pleural effusions of patients with metastatic breast cancer; and SUM 102 was cultured from a primary, microinvasive breast carcinoma (Ethier, S. P., Mahack, M. L., Gullick, W. J., Frank, T. S., and Weber, B. L. Differential isolation of normal luminal mammary epithelial cells and breast cancer cells from primary and metastatic sites using selective media. Cancer Res. 53: 627-635).
Adult Strongylocentrotus purpuratus sea urchins were obtained from Pacific BioMarine, and their embryos were cultured to the early pluteus stage in artificial sea water at 15° C. SU-ECM were prepared from them by treatment with nonionic detergent and strerilized by dilution in the appropriate media.
Cells were harvested by rinsing in Hanks' balanced salt solution, followed by brief treatment with 0.25% trypsin, 0.02% EDTA, and pelleting and resuspension in the appropriate medium with or without 5% FCS at a density of about 50,000 cells per ml. When appropriate, purified bovine plasma fibronectin (Sigma), purified 120 kDa chymotryptic fragment (Gibco BRL), PHSRN (SEQ ID NO:1) or PHSCN (SEQ ID NO:86) peptides (synthesized at the Biomedical Research Core Facilities of the University of Michigan), or GRGDSP (SEQ ID NO:83) or GRGESP (SEQ ID NO:84) peptides (Gibco BRL) were added to the resuspended cells prior to placement of the cells on SU-ECM. In each well of a plate used for an invasion assay, SU-ECM were placed in 0.5 ml of the appropriate medium, and 0.5 ml of the resuspended cells dropped on their exterior surfaces. Invasion assays were incubated 1 to 16 hours prior to assay. If some circumstances, invasion assays were fixed in phosphate-buffered saline (PBS) with 2% formaldehyde for 5 minutes at room temperature, then rinsed into PBS.
Invasion assays were coded and scored blindly by microscopic examination under phase contrast at 200- and 400-fold magnification. Each cell contacting an SU-ECM was scored for its position relative to the exterior or interior surfaces. A cell was judged to have invaded if it was located on an interior surface below the focal plane passing through the upper surface of the SU-ECM, but above the focal plane passing through its lower surface. The minimum viability of the cells in each assay was always ascertained at the time of assay by determining the fraction of spread, adherent cells on the bottom of each well scored.
An invasion frequency is defined as the fraction of cells in contact with basement membranes which were located in their interiors at the time of assay. Thus, an invasion frequency of 1 denotes invasion by 100% of the cells in contact with basement membranes. Invasion frequencies were determined multiple times for each cell type assayed. For each type of cell assayed the mean and standard deviation of the invasion frequencies were calculated.
The method of Example 4 is employed, with the addition of varying concentrations of the PHSCN (SEQ ID NO:86) peptide.
Thus, the procedure in Example 4 provides a method for determining the inhibitory potential of the PHSCN (SEQ ID NO:86) peptide by comparing the number of cell invasions in the presence of the PHSCN (SEQ ID NO:86) peptide, with the number of cell invasions in the absence of the PHSCN (SEQ ID NO:86) peptide.

Pro-His-Ser-Cys-Asn (PHSCN)
almost complete inhibition: inhibition of PHSRN-induced invasion of SU-ECM ([2]; higher concentrations) | inhibition of PHSRN-induced invasion of SU-ECM ([3]; higher concentrations) | inhibition of PHSRN-induced invasion of SU-ECM ([4]; higher concentrations) | inhibition of PHSRN-induced invasion of SU-ECM ([5]; higher concentrations)
substantial inhibitory affect: inhibition of PHSRN-induced invasion of SU-ECM ([2]; low concentrations) | inhibition of serum-induced invasion of SU-ECM ([3]; relatively low concentrations) | inhibition of PHSRN-induced invasion of SU-ECM ([3]; low concentrations) | inhibition of PHSRN-induced invasion of SU-ECM ([4]; low concentrations) | inhibition of PHSRN-induced invasion of SU-ECM ([5]; low concentrations) | inhibition of serum-induced invasion of SU-ECM ([5]; relatively low PHSCN concentrations)
complete inhibition: inhibition of serum-induced invasion of SU-ECM ([3]; relatively high concentrations) | inhibition of serum-induced invasion of SU-ECM ([5]; relatively high PHSCN concentrations)
clot very slowly: clotting of peptide-treated blood [1]
